Experimental data from PMC10514136, “Peptide-conjugated antimiRs improve myotonic dystrophy type 1 phenotypes by promoting endogenous MBNL1 expression” (Molecular Therapy. Nucleic Acids, 2023).

System: HSALR mice
Assay: Histology, percentage of muscle fibers with central nuclei
Type: in vivo, mouse
Conditions: 9.2 mg/kg (mean) i.v. every 2 weeks x3, day 45
From the text: Mouse handling and experimental procedures followed the European law regarding laboratory animal care and experimentation (2003/65/C.E.) and were approved by Conselleria de Agricultura, Generalitat Valenciana (reference no. A1539961490857). We used homozygous transgenic HSA^LR (line 20 b) mice,[90] which were kindly provided by Dr Thornton (Rochester, NY) and were housed and bred in our animal facility. Experimental groups were FVB as healthy control and HSA^LR treated with a scrambled ON (SC) and PBS as negative controls, and HSA^LR mice treated with all six experimental CPP-PMOs. The mice were randomly allocated to the different treatments as follows: in each cage, each mouse was ear-marked as it was taken out, and each mouse was then assigned to a different treatment. […]
Frozen 15-μm sections of mouse gastrocnemius and quadriceps muscles were stained with hematoxylin and eosin and mounted with DPX Mountant for histology (Sigma) according to standard procedures. […] The percentage of fibers containing central nuclei was quantified in a total of 200 fibers in each mouse.

TCTTACCTCAGTTACAATTTA-Pip9b2 [Scramble, reference compound]
muscle fibers with central nuclei vs PBS-injected mice: did not differ significantly from PBS-injected ones
